Test results from PMC12463120, “Phenylalanine‐Based DNA‐Encoded Chemical Libraries for the Discovery of Potent and Selective Small Organic Ligands Against Markers of Cancer and Immune Cells” (Advanced Science, 2025).
“Also recorded” adds a separate entry of the source.

Tested on: NK-92 cells
Test: In vitro interferon-gamma release assay on NK-92 cells
Type: cell-based, human
Conditions: serial dilution from 7.5 µM, 24 h
Description: plate (20 µL/well). Test compounds (300 nM, in 175 µL of FACS buffer) were added to the wells containing the beads. Plates were further incubated in the dark at room temperature for 1 hour and subsequently centrifuged at 2’500 rpm at 4 °C for 3 min. Beads were washed and resuspended in FACS buffer (200 µL). Data were acquired halting the measurement at 10’000 events on a Cytoflex S flow cytometer (Beckman Coulter) and analyzed using the FlowJo software v10 (BD Biosciences).
2.19 In vitro interferon-gamma release assay
Compounds 26 and 30 were tested for their ability to induce interferon-gamma (IFN-γ) release upon incubation with NK-cells. NK-92 cells were initially starved for 4 h in plain RPMI medium. […] After 24 h, cell-free supernatants were collected, and the concentration of IFN-γ was measured using the ELISA MAXTM Set Human IFN-γ kit (BioLegend). […]
The sections were blocked with 20% FCS (Invitrogen) and 3% BSA in PBS (pH 7.4) for 30 min and washed three times with PBS (pH 7.4). […] Images were recorded on a CR-35 Bio scanner and processed with the AIDA image analysis […]
2.21 Quantitative in vivo biodistribution studies […]
Figure S39. […] After 24 hours of incubation, IFN-γ levels in the culture supernatant were measured by ELISA. […]

## CC(C)Oc1ccc(-c2cccc(C[C@H](NC(=O)c3ccccc3-c3ccc(C(F)(F)F)cc3)C(=O)N[C@@H](CCCCNC(=S)Nc3ccc4c(c3)C(=O)OC43c4ccc(O)cc4Oc4cc(O)ccc43)C(=O)O)c2)c(F)c1 [compound 30]
  IFN-γ release by NK-92 cells: did not induce IFN-γ release; also recorded: not found to induce the release
